# Measurements from ChEMBL document CHEMBL1201862, “PubChem BioAssay data set” (2004).
#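 Step 1: Grow cells in 96-well plates. Step 2: Expose to compound for 48 hours at 5 concentrations. Step 3: Interpolate endpoints linearly; if unreached, use highest concentration. Here, GI50 denotes the concentration required for 50% inhibition of growth.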 Activity calls are given as the source filed them. Cut-off read from the data, not from the text of the source: active = GI50 up to about 1.1 µM and inactive = higher.
# Assays:
# Test in all cases: DTP human tumour cell line panel, 48 h
# OVCAR-5 = system: OVCAR-5
# NCI-H23 = system: NCI-H23
# NCI-H522 = system: NCI-H522
# SK-MEL-5 = system: SK-MEL-5
# LXFL 529 = system: LXFL 529
# EKVX = system: EKVX
# RPMI-8226 = system: RPMI-8226
# KM-20L2 = system: KM-20L2
# SN12C = system: SN12C
# ACHN = system: ACHN
# COLO 205 = system: COLO 205
# UACC-62 = system: UACC-62
# CAKI-1 = system: CAKI-1
# SR = system: SR
# HCT-15 = system: HCT-15
SMILES,GI50 (OVCAR-5),GI50 (NCI-H23),GI50 (NCI-H522),GI50 (SK-MEL-5),GI50 (LXFL 529),GI50 (EKVX),GI50 (RPMI-8226),GI50 (KM-20L2),GI50 (SN12C),GI50 (ACHN),GI50 (COLO 205),GI50 (UACC-62),GI50 (CAKI-1),GI50 (SR),GI50 (HCT-15)
C#Cc1cccc(NC(=O)/C=C\C(=O)O)c1,> 100 µM (inactive),> 100 µM (inactive),> 100 µM (inactive),> 100 µM (inactive),> 100 µM (inactive),> 100 µM (inactive),> 100 µM (inactive),> 100 µM (inactive),> 100 µM (inactive),> 100 µM (inactive),> 100 µM (inactive),> 100 µM (inactive),> 100 µM (inactive),–,–
COc1ccc(/C=c2/sc3n(c2=O)NC2(CCC(C)CC2)NN=3)cc1 (stereo not given),> 100 µM (inactive),> 100 µM (inactive),> 100 µM (inactive),49.7 µM (inactive),> 100 µM (inactive),> 100 µM (inactive),–,> 100 µM (inactive),> 100 µM (inactive),> 100 µM (inactive),> 100 µM (inactive),> 100 µM (inactive),> 100 µM (inactive),> 100 µM (inactive),–
COC1=CC(=O)C(O)=C(CC2(C)C(C)CCC3(C)C2CCCC3(C)C)C1=O (stereo not given),10.3 µM (inactive),2.84 µM (inactive),2.7 µM (inactive),3.76 µM (inactive),5.41 µM (inactive),5.83 µM (inactive),2.96 µM (inactive),2.42 µM (inactive),3.7 µM (inactive),3.89 µM (inactive),5.51 µM (inactive),2.04 µM (inactive),3.34 µM (inactive),3.11 µM (inactive),3.3 µM
CC(=O)O[C@]12CCCCCC1C1(O)C(O)CCC[C@H]12 (stereo not given in full),–,> 100 µM (inactive),–,> 100 µM (inactive),> 100 µM (inactive),> 100 µM (inactive),> 100 µM (inactive),> 100 µM (inactive),> 100 µM (inactive),> 100 µM (inactive),> 100 µM (inactive),> 100 µM (inactive),–,> 100 µM (inactive),> 100 µM
COc1cccc(/C=C(\NC(C)=O)c2nc3cc(Cl)ccc3[nH]2)c1,> 100 µM (inactive),> 100 µM (inactive),> 100 µM (inactive),> 100 µM (inactive),> 100 µM (inactive),> 100 µM (inactive),–,> 100 µM (inactive),> 100 µM (inactive),> 100 µM (inactive),> 100 µM (inactive),> 100 µM (inactive),> 100 µM (inactive),> 100 µM (inactive),> 100 µM
O=C(O)CNc1cc(-c2ccccc2)nc(NCC(=O)O)n1,> 100 µM (inactive),> 100 µM (inactive),> 100 µM (inactive),> 100 µM (inactive),> 100 µM (inactive),> 100 µM (inactive),> 100 µM (inactive),> 100 µM (inactive),> 100 µM (inactive),> 100 µM (inactive),> 100 µM (inactive),> 100 µM (inactive),> 100 µM (inactive),> 100 µM (inactive),> 100 µM
C=CC1=C(C)c2cc3[nH]c(cc4nc(cc5[nH]c(cc1n2)c(C)c5CCC(=O)N(CC)CC)C(CCC(=O)N(CC)CC)=C4C)c(C)c3C=C,74.5 µM (inactive),> 100 µM (inactive),> 100 µM (inactive),> 100 µM (inactive),> 100 µM (inactive),> 100 µM (inactive),–,> 100 µM (inactive),> 100 µM (inactive),> 100 µM (inactive),–,> 100 µM (inactive),–,> 100 µM (inactive),> 100 µM
O=C(COC(=O)c1cccc2c(=O)c3ccccc3[nH]c12)Nc1ccc(S(=O)(=O)Nc2ncccn2)cc1,39.3 µM (inactive),37.5 µM (inactive),24.4 µM (inactive),82 µM (inactive),47.5 µM (inactive),64.1 µM (inactive),51.4 µM (inactive),65.9 µM (inactive),59.6 µM (inactive),36.8 µM (inactive),59.6 µM (inactive),20 µM (inactive),79.3 µM (inactive),29 µM (inactive),> 100 µM
O=C1CCC(c2ccccc2)C(O)(C(=O)O)C1 (stereo not given),> 100 µM (inactive),> 100 µM (inactive),> 100 µM (inactive),> 100 µM (inactive),> 100 µM (inactive),> 100 µM (inactive),> 100 µM (inactive),> 100 µM (inactive),> 100 µM (inactive),> 100 µM (inactive),> 100 µM (inactive),> 100 µM (inactive),> 100 µM (inactive),> 100 µM (inactive),> 100 µM
Cc1ccc(-c2cc(-c3ccco3)c(C#N)c(=O)n2C2OC(OC(=O)c3ccccc3)C(OC(=O)c3ccccc3)C2OC(=O)c2ccccc2)cc1 (stereo not given),> 100 µM (inactive),–,62.8 µM (inactive),–,> 100 µM (inactive),> 100 µM (inactive),> 100 µM (inactive),> 100 µM (inactive),> 100 µM (inactive),> 100 µM (inactive),> 10 µM (inactive),> 100 µM (inactive),> 100 µM (inactive),> 100 µM (inactive),> 100 µM
CC1(Br)C(=O)NC(=O)N(C2CC(N=[N+]=[N-])C(CO)O2)C1N=[N+]=[N-] (stereo not given),> 100 µM (inactive),> 100 µM (inactive),23.1 µM (inactive),> 100 µM (inactive),> 100 µM (inactive),> 100 µM (inactive),92.5 µM (inactive),> 100 µM (inactive),> 100 µM (inactive),> 100 µM (inactive),> 100 µM (inactive),> 100 µM (inactive),70.8 µM (inactive),–,> 100 µM
O=C(Nc1cccc(Cc2cccc(NC(=O)c3ccccc3)c2)c1)c1ccccc1,> 100 µM (inactive),33.1 µM (inactive),25.2 µM (inactive),25.1 µM (inactive),28.7 µM (inactive),23.3 µM (inactive),–,> 100 µM (inactive),19.5 µM (inactive),28.2 µM (inactive),> 100 µM (inactive),23.8 µM (inactive),16.9 µM (inactive),> 100 µM (inactive),89.3 µM
CCC1(N=[N+]=[N-])C(=O)c2ccccc2N(C)C1=O (stereo not given),> 100 µM (inactive),> 100 µM (inactive),> 100 µM (inactive),> 100 µM (inactive),> 100 µM (inactive),> 100 µM (inactive),–,> 100 µM (inactive),> 100 µM (inactive),> 100 µM (inactive),> 100 µM (inactive),> 100 µM (inactive),> 100 µM (inactive),> 100 µM (inactive),> 100 µM
CNCC(=O)Nc1ccc2c(c1)C(=O)c1ccc(NC(=O)CNC)cc1C2=O,17.5 µM (inactive),13.4 µM (inactive),1.59 µM (inactive),4.68 µM (inactive),2.8 µM (inactive),–,–,5.3 µM (inactive),3.1 µM (inactive),–,2.37 µM (inactive),10.3 µM (inactive),5.65 µM (inactive),1.96 µM (inactive),7.62 µM
Cc1c(Cl)ccc2c1NC(=O)C2(O)CC(=O)c1cccc2ccccc12 (stereo not given),> 100 µM (inactive),> 100 µM (inactive),43.8 µM (inactive),34 µM (inactive),> 100 µM (inactive),> 100 µM (inactive),28.9 µM (inactive),51.8 µM (inactive),> 100 µM (inactive),> 100 µM (inactive),> 100 µM (inactive),36.7 µM (inactive),39.4 µM (inactive),24.1 µM (inactive),78.5 µM
O=C1OCC(C(=O)c2cccc(O)c2)C1=O (stereo not given),> 100 µM (inactive),> 100 µM (inactive),> 100 µM (inactive),> 100 µM (inactive),> 100 µM (inactive),> 100 µM (inactive),> 100 µM (inactive),> 100 µM (inactive),> 100 µM (inactive),> 100 µM (inactive),> 100 µM (inactive),> 100 µM (inactive),> 100 µM (inactive),–,> 100 µM
O=S(=O)(O)C(O)/C=C/c1ccccc1 (stereo not given),> 100 µM (inactive),> 100 µM (inactive),> 100 µM (inactive),> 100 µM (inactive),> 100 µM (inactive),> 100 µM (inactive),–,> 100 µM (inactive),> 100 µM (inactive),> 100 µM (inactive),> 100 µM (inactive),> 100 µM (inactive),> 100 µM (inactive),26.6 µM (inactive),> 100 µM
O=C(COc1ccc2c(=O)cc(-c3ccccc3)oc2c1)N1CCN(c2ccccc2)CC1,34.6 µM (inactive),46.1 µM (inactive),18.8 µM (inactive),25.4 µM (inactive),34.1 µM (inactive),28.4 µM (inactive),14.2 µM (inactive),37.7 µM (inactive),41.4 µM (inactive),50.8 µM (inactive),37 µM (inactive),57.9 µM (inactive),–,–,41.2 µM
CC1(c2ccccc2Cl)C(C#N)C(=O)NC(=O)C1C#N (stereo not given),91 µM (inactive),33.3 µM (inactive),20.8 µM (inactive),25.8 µM (inactive),27 µM (inactive),24.5 µM (inactive),22.7 µM (inactive),36.1 µM (inactive),28.7 µM (inactive),34.8 µM (inactive),45 µM (inactive),33.6 µM (inactive),> 100 µM (inactive),–,> 100 µM
CC(=O)/C(=C\c1cccc([N+](=O)[O-])c1)C(=O)Nc1ccccc1C,> 100 µM (inactive),> 100 µM (inactive),> 100 µM (inactive),> 100 µM (inactive),> 100 µM (inactive),> 100 µM (inactive),42.8 µM (inactive),> 100 µM (inactive),> 100 µM (inactive),> 100 µM (inactive),–,59.2 µM (inactive),> 100 µM (inactive),33.6 µM (inactive),> 100 µM
